Assay results published in ChEMBL document CHEMBL5154782, “Discovery of Potent PROTACs Targeting EGFR Mutants through the Optimization of Covalent EGFR Ligands” (J Med Chem, 2022).

Assays:
HCC827 = test: Antiproliferative activity against human HCC827 cells expressing EGFR deletion19 mutant assessed as inhibition of cell proliferation incubated for 72 hrs by MTT assay; type: functional, cell-based; conditions: HCC827, 72 h
NCI-H1975 = test: Antiproliferative activity against human NCI-H1975 cells expressing EGFR L858R/T790M mutant assessed as inhibition of cell proliferation incubated for 72 hrs by MTT assay; type: functional, cell-based; conditions: NCI-H1975, 72 h
[1] = biological target: von Hippel-Lindau disease tumor suppressor/Epidermal growth factor receptor (Homo sapiens, UniProt P00533+P40337, L858R/T790M); test: Protac activity at VHL/EGFR L858R/T790M mutant (unknown origin) assessed as inhibition of EGFR incubated for 40 mins in presence of ATP by Kinase Glo luminescence assay; type: protein assay
[2] = system: von Hippel-Lindau disease tumor suppressor/Epidermal growth factor receptor (Homo sapiens), P00533+P40337 [L858R,T790M]; test: Protac activity at VHL/EGFR L858R/T790M mutant in human NCI-H1975 cells assessed as induction of EGFR degradation at 100 nM incubated for 24 hrs by Western blot analysis relative to control; type: cell-based
[3] = system: von Hippel-Lindau disease tumor suppressor/Epidermal growth factor receptor (Homo sapiens), P00533+P40337 [UNDEFINED MUTATION]; test: Protac activity at VHL/EGFR/deletion19 in human HCC827 cells assessed as induction of EGFR degradation at 30 nM incubated for 24 hrs by Western blot analysis relative to control; type: cell-based
[4] = system: von Hippel-Lindau disease tumor suppressor/Epidermal growth factor receptor (Homo sapiens), P00533+P40337 [UNDEFINED MUTATION]; test: Protac activity at VHL/EGFR/deletion19 in human HCC827 cells assessed as induction of EGFR degradation at 3 nM incubated for 24 hrs by Western blot analysis relative to control; type: cell-based
[5] = system: von Hippel-Lindau disease tumor suppressor/Epidermal growth factor receptor (Homo sapiens), P00533+P40337 [L858R,T790M]; test: Protac activity at VHL/EGFR L858R/T790M mutant in human NCI-H1975 cells assessed as induction of EGFR degradation at 10 nM incubated for 24 hrs by Western blot analysis relative to control; type: cell-based
[6] = system: von Hippel-Lindau disease tumor suppressor/Epidermal growth factor receptor (Homo sapiens), P00533+P40337 [L858R,T790M]; test: Protac activity at VHL/[…] cells assessed as induction of EGFR degradation at 100 nM incubated for 24 hrs by Western blot analysis relative to control; type: cell-based
[7] = system: von Hippel-Lindau disease tumor suppressor/Epidermal growth factor receptor (Homo sapiens), P00533+P40337 [L858R,T790M]; test: Protac activity at VHL/EGFR L858R/T790M mutant in human NCI-H1975 cells assessed as induction of EGFR degradation at 1000 nM incubated for 24 hrs by Western blot analysis relative to control; type: cell-based
[8] = system: von Hippel-Lindau disease tumor suppressor/Epidermal growth factor receptor (Homo sapiens), P00533+P40337 [L858R,T790M]; test: Protac activity at VHL/[…] cells assessed as induction of EGFR degradation at 1000 nM incubated for 24 hrs by Western blot analysis relative to control; type: cell-based
A-431 = test: Antiproliferative activity against human A-431 cells expressing EGFR wildtype assessed as inhibition of cell proliferation incubated for 72 hrs by MTT assay; type: functional, cell-based; conditions: A-431, 72 h

Row | SMILES | IC50 (HCC827) | IC50 (NCI-H1975) | IC50 [1] | Activity [2] | Activity [3] | Activity [4] | Activity [5] | Activity [6] | Activity [7] | Activity [8] | IC50 (A-431)
1 | C=CC(=O)Nc1cccc(-n2c(Nc3ccccc3)nc3cnc(Nc4ccc(N5CCN(C)CC5)cc4)nc32)c1 | 0.38 nM | 41 nM | – | – | – | – | – | – | – | – | –
2 | COc1cc(N2CCN(C)CC2)c(NC(=O)/C(C#N)=C/C(C)(C)NC(=O)CCCCCC(=O)N[C@H](C(=O)N2C[C@H](O)C[C@H]2C(=O)NCc2ccc(-c3scnc3C)cc2)C(C)(C)C)cc1Nc1nccc(-c2cn(C)c3ccccc23)n1 | 1390 nM | 5790 nM | > 10000 nM | – | – | – | – | – | – | – | –
3 | C=CC(=O)N1CCC[C@H](n2c(Nc3ccccc3)nc3cnc(Nc4ccc(N5CCN(CC(=O)NCCOCCOCC(=O)N[C@H](C(=O)N6C[C@H](O)C[C@H]6C(=O)NCc6ccc(-c7scnc7C)cc6)C(C)(C)C)CC5)cc4)nc32)C1 | 59.6 nM | 282 nM | – | < 20% | 57% | 50% | < 20% | – | – | – | –
4 | CN1CCN(c2ccc(Nc3ncc4nc(Nc5ccccc5)n(C5CCCC5)c4n3)cc2)CC1 | 0.93 nM | 342 nM | – | – | – | – | – | – | – | – | –
5 | COc1cc(N(C)CCN(C)C)c(NC(=O)/C=C/CN(C)CCN(C)C(=O)CCCCCCC(=O)N[C@H](C(=O)N2C[C@H](O)C[C@H]2C(=O)NCc2ccc(-c3scnc3C)cc2)C(C)(C)C)cc1Nc1nccc(-c2cn(C)c3ccccc23)n1 | 130 nM | 1690 nM | – | < 20% | – | – | – | < 20% | < 20% | 24% | > 10000 nM
6 | COc1cc(N(C)CCN(C)C)c(NC(=O)/C=C/CN(C)CCN(C)C(=O)CCCC(=O)N[C@H](C(=O)N2C[C@H](O)C[C@H]2C(=O)NCc2ccc(-c3scnc3C)cc2)C(C)(C)C)cc1Nc1nccc(-c2cn(C)c3ccccc23)n1 | 150 nM | 2760 nM | – | – | – | – | – | – | – | – | –
7 | COc1cc(N(C)CCN(C)C)c(NC(=O)/C=C/CN(C)CCCCCCCCCC(=O)N[C@H](C(=O)N2C[C@H](O)C[C@H]2C(=O)NCc2ccc(-c3scnc3C)cc2)C(C)(C)C)cc1Nc1nccc(-c2cn(C)c3ccccc23)n1 | 61 nM | 985 nM | – | < 20% | – | – | – | < 20% | < 20% | 30% | 840 nM
8 | C=CC(=O)N1CCC[C@H](n2c(Nc3ccccc3)nc3cnc(Nc4ccc(N5CCN(CCCCCCC(=O)N[C@H](C(=O)N6C[C@H](O)C[C@H]6C(=O)NCc6ccc(-c7scnc7C)cc6)C(C)(C)C)CC5)cc4)nc32)C1 | 1.67 nM | 40 nM | – | 69% | 70% | 62% | 49% | – | – | – | > 10000 nM
9 | CCC(=O)N1CCC[C@H](n2c(Nc3ccccc3)nc3cnc(Nc4ccc(N5CCN(C)CC5)cc4)nc32)C1 | 2.48 nM | 1170 nM | – | – | – | – | – | – | – | – | –
10 | C=CC(=O)N1CCC[C@H](n2c(Nc3ccccc3)nc3cnc(Nc4ccc(N5CCN(CC(=O)NCCCCCC(=O)N[C@H](C(=O)N6C[C@H](O)C[C@H]6C(=O)NCc6ccc(-c7scnc7C)cc6)C(C)(C)C)CC5)cc4)nc32)C1 | 36.5 nM | 250 nM | – | 23% | 60% | 46% | < 20% | – | – | – | –
11 | C=CC(=O)Nc1cc(Nc2nccc(-c3cn(C)c4ccccc34)n2)c(OC)cc1N(CCCCCCC(=O)N[C@H](C(=O)N1C[C@H](O)C[C@H]1C(=O)NCc1ccc(-c2scnc2C)cc1)C(C)(C)C)CCN(C)C | 75 nM | 760 nM | – | < 20% | – | – | – | < 28% | < 20% | 34% | 1550 nM
12 | C=CC(=O)Nc1cc(Nc2nccc(-c3cn(C)c4ccccc34)n2)c(OC)cc1N(C)CCN(C)CC(=O)NCCOCCOCC(=O)N[C@H](C(=O)N1C[C@H](O)C[C@H]1C(=O)NCc1ccc(-c2scnc2C)cc1)C(C)(C)C | 768 nM | 2370 nM | – | – | – | – | – | – | – | – | –
13 | C=CC(=O)N1CCC(n2c(Nc3ccccc3)nc3cnc(Nc4ccc(N5CCN(C)CC5)nc4)nc32)CC1 | 3.05 nM | 290 nM | – | – | – | – | – | – | – | – | –
14 | C=CC(=O)N1CCC[C@H](n2c(Nc3ccccc3)nc3cnc(Nc4ccc(N5CCN(CC(=O)NCCCCCCC(=O)N[C@H](C(=O)N6C[C@H](O)C[C@H]6C(=O)NCc6ccc(-c7scnc7C)cc6)C(C)(C)C)CC5)cc4)nc32)C1 | 8.93 nM | 127 nM | – | < 20% | 77% | 63% | < 20% | – | – | – | –
15 | C=CC(=O)N1CCC(n2c(Nc3ccccc3)nc3cnc(Nc4ccc(N5CCN(C)CC5)cc4)nc32)CC1 | 2.19 nM | 360 nM | – | – | – | – | – | – | – | – | –
16 | COc1cc(N2CCN(CC(=O)NCCCCCCC(=O)N[C@H](C(=O)N3C[C@H](O)C[C@H]3C(=O)NCc3ccc(-c4scnc4C)cc3)C(C)(C)C)CC2)c(NC(=O)/C(C#N)=C/C2CC2)cc1Nc1nccc(-c2cn(C)c3ccccc23)n1 | > 10000 nM | > 10000 nM | > 10000 nM | – | – | – | – | – | – | – | –
17 | COc1cc(N(C)CCN(C)C)c(NC(=O)/C=C/CN(C)CCCCCCCC(=O)N[C@H](C(=O)N2C[C@H](O)C[C@H]2C(=O)NCc2ccc(-c3scnc3C)cc2)C(C)(C)C)cc1Nc1nccc(-c2cn(C)c3ccccc23)n1 | 67 nM | 640 nM | – | < 20% | – | – | – | < 20% | < 20% | 25% | –
18 | COc1cc(N2CCN(CC(=O)NCCCCCCC(=O)N[C@H](C(=O)N3C[C@H](O)C[C@H]3C(=O)NCc3ccc(-c4scnc4C)cc3)C(C)(C)C)CC2)c(NC(=O)/C(C#N)=C/c2ccncc2)cc1Nc1nccc(-c2cn(C)c3ccccc23)n1 | > 10000 nM | > 10000 nM | > 10000 nM | – | – | – | – | – | – | – | –
19 | C=CC(=O)Nc1cc(Nc2nccc(-c3cn(C)c4ccccc34)n2)c(OC)cc1N(CCCCCCC(=O)NCCOCCOCC(=O)N[C@H](C(=O)N1C[C@H](O)C[C@H]1C(=O)NCc1ccc(-c2scnc2C)cc1)C(C)(C)C)CCN(C)C | 683 nM | 800 nM | – | < 20% | – | – | – | 23% | < 20% | 25% | –
20 | C=CC(=O)Nc1cc(Nc2nccc(-c3cn(C)c4ccccc34)n2)c(OC)cc1N(CCCCCCC(=O)NCCCCCCC(=O)N[C@H](C(=O)N1C[C@H](O)C[C@H]1C(=O)NCc1ccc(-c2scnc2C)cc1)C(C)(C)C)CCN(C)C | 110 nM | 730 nM | – | < 20% | – | – | – | < 20% | < 20% | < 20% | –
21 | C=CC(=O)N1CCC[C@H](n2c(Nc3ccccc3)nc3cnc(Nc4ccc(N5CCN(CCCCCCCC(=O)N[C@H](C(=O)N6C[C@@H](O)C[C@H]6C(=O)N[C@@H](C)c6ccc(-c7scnc7C)cc6)C(C)(C)C)CC5)cc4)nc32)C1 | 1.83 nM | 41 nM | – | – | – | – | – | – | – | – | –
22 | C=CC(=O)N1CC[C@@H](n2c(Nc3ccccc3)nc3cnc(Nc4ccc(N5CCN(C)CC5)cc4)nc32)C1 | 1.16 nM | 290 nM | – | – | – | – | – | – | – | – | –
23 | COc1cc(N(C)CCN(C)C)c(NC(=O)/C=C/CN(C)CCN(C)C(=O)CCCCCC(=O)N[C@H](C(=O)N2C[C@H](O)C[C@H]2C(=O)NCc2ccc(-c3scnc3C)cc2)C(C)(C)C)cc1Nc1nccc(-c2cn(C)c3ccccc23)n1 | 140 nM | 1470 nM | – | < 20% | – | – | – | < 20% | < 20% | 25% | –
24 | C=CC(=O)N1CCC[C@@H](n2c(Nc3ccccc3)nc3cnc(Nc4ccc(N5CCN(C)CC5)cc4)nc32)C1 | 1.77 nM | 266 nM | – | – | – | – | – | – | – | – | –
